We go through 20 molecules from US20260078099A1, “COMPOUND, PREPARATION METHOD THEREOF, AND LIPID NANOPARTICLE AND PHARMACEUTICAL COMPOSITION” (priority 2023, published 2026).

A short description of data set [1]: LNP size and PDI by dynamic light scattering. It counts as physicochemical. As to conditions: for PDI / Size (nm): mRNA LNP, cationic lipid/DSPC/cholesterol/PEG-lipid 50:10:38.5:1.5.
The nature of data set [2]: LNP encapsulation efficiency (Quant-it Ribogreen). Format: physicochemical. As to conditions: mRNA LNP, cationic lipid/DSPC/cholesterol/PEG-lipid 50:10:38.5:1.5.
Data set [3] in a line: LNP zeta potential. Format: physicochemical. As to conditions: mRNA LNP.
The test system of data set [4] is mice. The experiment in a line: Bioluminescent study, intramuscular injection of F-luc mRNA LNPs. Format: in vivo. The following applies: F-luc luminescence flux normalized to MC3; 0.25 mg/kg intramuscular, mice n=3, 6-hour time point. Put shortly:
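Mice (n=3) received LNP-formulated F-luc mRNA at 0.25 mg/kg intramuscularly. Bioluminescence was read 6 h after dosing. Test LNPs were made with an MC3 formulation, and PBS served as control in some groups.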

Data set [5] can be described thus: Dose-response study, Luc mRNA intramuscular. Format: in vivo. As to conditions: mRNA doses 0.25, 0.05 and 0.01 mg/kg. The procedure:
Samples containing firefly luciferase (Luc) mRNA were administered intramuscularly to evaluate protein expression. […] As the dose decreased, the injection site's expression proportion increased. A26, A47, and B38 maintained injection site flux levels of 0.3-3×10^10 (p/s) across all doses.

Turning to `CCCCCCCCNC(=O)C(CCCCCCCC)N(CCCN(C)C)C(=O)CCCCCCC(=O)OC(CCCCCCCC)CCCCCCCC` (stereo not drawn) [Compound A26], in data set [1], the PDI is on record as 0.11 and the “Size (nm)” value came out at 94.21 nm. In addition, in data set [1] (mRNA-loaded LNPs), the “particle sizes by dynamic light scattering (FIG. 22)” value is listed as “approximately 100 nm”. Also, the “Encapsulation efficiency (%)” value in data set [2] came out at 94.09%. In data set [3], the “Zeta potential (mV)” value is 2.30 mV. Moreover, the “Relative Total flux” value in data set [4] is given as “A (A: ≥2)”. Besides, in data set [5], the “dose-response of Luc expression” value is “clear dose-response gradient”.

With `CCCCCCCCNC(=O)C(CCCCCCCC)N(CCCN(C)CCO)C(=O)CCCCCCC(=O)OC(CCCCCCCC)CCCCCCCC` (stereo not drawn) [Compound B30], in data set [1], the PDI stood at 0.08 and the “Size (nm)” value is reported as 64.27 nm. For the same molecule, the “Encapsulation efficiency (%)” value in data set [2] is 93.97%. For the same molecule, the “Zeta potential (mV)” value in data set [3] turned out to be 3.81 mV. In addition, in data set [4], the “Relative Total flux” value is given as “A (A: ≥2)”.

As for `CCCCCCCC(C(=O)NCCCCCCCCCC(=O)OC(CCCCCC)CCCCCC)N(CCCNc1c(NC)c(=O)c1=O)C(=O)CCCCCCCCCC(=O)OC(CCCCCC)CCCCCC` (stereo not drawn) [Compound B22], in data set [1], the PDI is listed as 0.165 and the “Size (nm)” value was found to be 141.8 nm. Besides, the “Encapsulation efficiency (%)” value in data set [2] came out at 95.03%. The “Zeta potential (mV)” value in data set [3] is recorded as −3.48 mV. Besides, in data set [4], the “Relative Total flux” value was “B (B: ≥1 and <2)”.

Turning to `CCCCCCCCNC(=O)C(CCCCCCCC)N(CCN(CC)CCO)C(=O)CCCCCCC(=O)OC(CCCCCCCC)CCCCCCCC` (stereo not drawn) [Compound B29], in data set [1], the PDI was found to be 0.10 and the “Size (nm)” value is recorded as 62.10 nm. Further, the “Encapsulation efficiency (%)” value in data set [2] stood at 93.73%. The “Zeta potential (mV)” value in data set [3] turned out to be 1.69 mV. Also, the “Relative Total flux” value in data set [4] is reported as “A (A: ≥2)”.

Turning to `CCCCCCCC(C(=O)NCCCCCCCCCC(=O)OC(CCCCCC)CCCCCC)N(CCCN(C)C)C(=O)CCCCCCCCCC(=O)OCC12CC3CC(CC(C3)C1)C2` (stereo not drawn) [Compound A17], in data set [1], the PDI was found to be 0.07 and the “Size (nm)” value is on record as 60.77 nm. The “Encapsulation efficiency (%)” value in data set [2] is 53.24%. For the same molecule, the “Zeta potential (mV)” value in data set [3] is −0.68 mV. Moreover, in data set [4], the “Relative Total flux” value is listed as “D (D: <0.1.)”.

As to `CCCCCCCCNC(=O)C(CCCC)N(CCCN(C)C)C(=O)CCCCCCC(=O)OC(CCCCCCCC)CCCCCCCC` (stereo not drawn) [Compound A27], in data set [1], the PDI came to 0.11 and the “Size (nm)” value came out at 121.37 nm. In addition, the “Encapsulation efficiency (%)” value in data set [2] was found to be 95.33%. Further, the “Zeta potential (mV)” value in data set [3] is given as −3.43 mV. In data set [4], the “Relative Total flux” value is on record as “A (A: ≥2)”.

`CCCCCCCCNC(=O)CCCCCNC(=O)C(CCCCCCCC)N(CCCN(C)C)C(=O)CCCCCC(=O)NC(CCCCCCC)CCCCCCC` (stereo not drawn) [Compound A31]: in data set [1], the PDI is 0.22 and the “Size (nm)” value amounted to 79.94 nm. Further, the “Encapsulation efficiency (%)” value in data set [2] amounted to 97.50%. For the same molecule, the “Zeta potential (mV)” value in data set [3] is given as −4.31 mV. Moreover, the “Relative Total flux” value in data set [4] was “B (B: ≥1 and <2)”.

For `CCCCCCCC(C(=O)NCCCCCCCCCC(=O)OC(CCCCCC)CCCCCC)N(CCCn1ccnc1)C(=O)CCCCCCCCCC(=O)OC(CCCCCC)CCCCCC` (stereo not drawn) [Compound B20], in data set [1], the PDI is 0.391 and the “Size (nm)” value is 93.23 nm. The “Encapsulation efficiency (%)” value in data set [2] was found to be 93.73%. In addition, the “Zeta potential (mV)” value in data set [3] is on record as −2.36 mV. The “Relative Total flux” value in data set [4] is reported as “A (A: ≥2)”.

`CCCCCCCCNC(=O)C(CCCCCC)N(CCCN(C)C)C(=O)CCCCCCC(=O)OC(CCCCCCCC)CCCCCCCC` (stereo not drawn) [Compound A29]: in data set [1], the PDI is listed as 0.09 and the “Size (nm)” value came out at 94.71 nm. The “Encapsulation efficiency (%)” value in data set [2] is on record as 94.69%. Besides, in data set [3], the “Zeta potential (mV)” value was −1.24 mV. For the same molecule, in data set [4], the “Relative Total flux” value is “A (A: ≥2)”.

As to `CCCCCCCCC(C(=O)NCCCCCCCCCC(=O)OCCCCCC)N(CCCN(C)C)C(=O)CCCCCCCCCC(=O)OC(CCCCCC)CCCCCC` (stereo not drawn) [Compound A15], in data set [1], the PDI is 0.251 and the “Size (nm)” value amounted to 113.2 nm. The “Encapsulation efficiency (%)” value in data set [2] was 93.95%. Besides, the “Zeta potential (mV)” value in data set [3] was determined as 4.75 mV. Moreover, the “Relative Total flux” value in data set [4] is “A (A: ≥2)”.

`CCCCCCCC(C(=O)NCCCCCCCCCC(=O)OC(CCCCCC)CCCCCC)N(CCN(CCO)C1CCC1)C(=O)CCCCCCCCCC(=O)OC(CCCCCC)CCCCCC` (stereo not drawn) [Compound B11]: in data set [1], the PDI is 0.205 and the “Size (nm)” value was 70.27 nm. Also, the “Encapsulation efficiency (%)” value in data set [2] was 81.83%. Moreover, in data set [3], the “Zeta potential (mV)” value is given as −9.69 mV. For the same molecule, the “Relative Total flux” value in data set [4] is reported as “A (A: ≥2)”.

For the molecule `CCCCCCCCNC(=O)C(CCCCC)N(CCCN(C)C)C(=O)CCCCCCC(=O)OC(CCCCCCCC)CCCCCCCC` (stereo not drawn) [Compound A28], in data set [1], the PDI turned out to be 0.15 and the “Size (nm)” value stood at 88.05 nm. In data set [2], the “Encapsulation efficiency (%)” value is 85.93%. Besides, the “Zeta potential (mV)” value in data set [3] is given as −0.41 mV. For the same molecule, the “Relative Total flux” value in data set [4] is listed as “A (A: ≥2)”.

On to `CCCCCCCCNC(=O)C(CCCCCCCC)N(CCC1CCCN1C)C(=O)CCCCCCC(=O)OC(CCCCCCCC)CCCCCCCC` (stereo not drawn) [Compound A34], for which, in data set [1], the PDI is 0.11 and the “Size (nm)” value was 94.21 nm. For the same molecule, the “Encapsulation efficiency (%)” value in data set [2] is 95.23%. For the same molecule, in data set [3], the “Zeta potential (mV)” value stood at 2.08 mV. Also, in data set [4], the “Relative Total flux” value is “A (A: ≥2)”.

As to `CCCCCCCC(C(=O)NCCCCCCCCCC(=O)OC(CCCCCC)CCCCCC)N(CCCN1CCN(CCO)CC1)C(=O)CCCCCCCCCC(=O)OC(CCCCCC)CCCCCC` (stereo not drawn) [Compound B17], in data set [1], the PDI is listed as 0.185 and the “Size (nm)” value came out at 64.2 nm. Further, the “Encapsulation efficiency (%)” value in data set [2] came to 92.99%. Moreover, the “Zeta potential (mV)” value in data set [3] was found to be 14.20 mV. Moreover, the “Relative Total flux” value in data set [4] is recorded as “A (A: ≥2)”.

Regarding `CCCCCCCC(C(=O)NCCCCCCCCCC(=O)OC(CCCCCC)CCCCCC)N(CCCN(CCO)C1CCCCC1)C(=O)CCCCCCCCCC(=O)OC(CCCCCC)CCCCCC` (stereo not drawn) [Compound B14], in data set [1], the PDI was found to be 0.13 and the “Size (nm)” value was determined as 76.67 nm. For the same molecule, the “Encapsulation efficiency (%)” value in data set [2] is recorded as 89.01%. The “Zeta potential (mV)” value in data set [3] is reported as 2.73 mV. The “Relative Total flux” value in data set [4] was “A (A: ≥2)”.

For the molecule `CCCCCCCCCCOCCCCCCCC(=O)N(CCCN(C)C)C(CCCCCCCC)C(=O)NCCCCCC(=O)OC(CCCCCCCC)CCCCCCCC` (stereo not drawn) [Compound A41], in data set [1], the PDI amounted to 0.66 and the “Size (nm)” value turned out to be 264.60 nm. In addition, the “Encapsulation efficiency (%)” value in data set [2] amounted to 54.08%. Besides, in data set [3], the “Zeta potential (mV)” value is −10.28 mV. Also, in data set [4], the “Relative Total flux” value was “C (C: ≥0.1 and <1)”.

On to `CCCCCCCCNC(=O)C(CCCCCCCC)N(CCCN(C)C)C(=O)CCCCCC(=O)NC(CCCCCCC)CCCCCCC` (stereo not drawn) [Compound A32], for which, in data set [1], the PDI came to 0.13 and the “Size (nm)” value was found to be 85.33 nm. The “Encapsulation efficiency (%)” value in data set [2] was 95.33%. For the same molecule, the “Zeta potential (mV)” value in data set [3] worked out at 1.89 mV. The “Relative Total flux” value in data set [4] is “B (B: ≥1 and <2)”.

For the molecule `CCCCCCCCNC(=O)C(CCCCCCCC)N(CCCN1CCCC1)C(=O)CCCCCCC(=O)OC(CCCCCCCC)CCCCCCCC` (stereo not drawn) [Compound A36], in data set [1], the PDI is on record as 0.17 and the “Size (nm)” value amounted to 79.52 nm. The “Encapsulation efficiency (%)” value in data set [2] amounted to 92.48%. The “Zeta potential (mV)” value in data set [3] was −1.82 mV. Moreover, the “Relative Total flux” value in data set [4] was “A (A: ≥2)”.

Turning to `CCCCCCCC(C(=O)NCCCCCCCCCC(=O)OC(CCCCCC)CCCCCC)N(CCOC(=O)CCN1CCCC1)C(=O)CCCCCCCCCC(=O)OC(CCCCCC)CCCCCC` (stereo not drawn) [Compound B25], in data set [1], the PDI came to 0.095 and the “Size (nm)” value amounted to 64.2 nm. In addition, the “Encapsulation efficiency (%)” value in data set [2] stood at 69.52%. Moreover, the “Zeta potential (mV)” value in data set [3] is recorded as −3.38 mV. The “Relative Total flux” value in data set [4] is “A (A: ≥2)”.

In the case of `CCCCCCC(CCCCCC)OC(=O)CCCCCCCCCNC(=O)C(CCCCCCCCCC(=O)OC(CCCCCC)CCCCCC)N(CCCN(CCO)CCO)C(=O)CCCN(CC)CC` (stereo not drawn) [Compound E4], in data set [1], the PDI was 0.205 and the “Size (nm)” value stood at 95.73 nm. The “Encapsulation efficiency (%)” value in data set [2] is 95.18%. In data set [3], the “Zeta potential (mV)” value came to 5.03 mV. Further, the “Relative Total flux” value in data set [4] was “A (A: ≥2)”.
